Data on 45 compounds can be found in patent US20050267071A1, “Inhibitors of coronavirus protease and methods of use thereof” (Fulcrum Pharmaceuticals, Inc., priority 2003, published 2005).

For the first test, the target named is T1, SARS-associated coronavirus protease 3CL^pro (Severe acute respiratory syndrome coronavirus, UniProt P0C6U8).
Assay: not given
Format: binding.
Turning to `O=C(Oc1ccc(OC(=O)c2cc(B(O)O)cc([N+](=O)[O-])c2)cc1)c1cc(B(O)O)cc([N+](=O)[O-])c1` [FL-078, 3-Borono-5-nitrobenzoic acid 1,4-phenylene ester], the “ΔH (Binding Enthalpy of Selected Compounds to 3CL^pro)” value was -4.9 kcal/mol. Take `O=C(Oc1ccc(OC(=O)c2cc(B(O)O)cc([N+](=O)[O-])c2)c(Cl)c1)c1cc(B(O)O)cc([N+](=O)[O-])c1` [FL-079, 3-Borono-5-nitrobenzoic acid 2-chloro-1,4-phenylene ester]: the “ΔH (Binding Enthalpy of Selected Compounds to 3CL^pro)” value was -1.7 kcal/mol. Same read-out and setting: in the case of `O=C(Oc1cccc(OC(=O)c2cc(B(O)O)cc([N+](=O)[O-])c2)c1)c1cc(B(O)O)cc([N+](=O)[O-])c1` [FL-106, 3-Borono-5-nitrobenzoic acid 1,3-phenylene ester] it was -5.3 kcal/mol; in that of `O=C(OCc1ccccc1COC(=O)c1cc(B(O)O)cc([N+](=O)[O-])c1)c1cc(B(O)O)cc([N+](=O)[O-])c1` [FL-136, 3-Borono-5-nitrobenzoic acid 1,2-benzenedimethanol ester], -9.2 kcal/mol.

For a further test, the target named is T1, SARS-associated coronavirus protease 3CL^pro. The test can be described thus: biochemical.
As to `O=C(Oc1ccc(OC(=O)c2cc(B(O)O)cc([N+](=O)[O-])c2)cc1)c1cc(B(O)O)cc([N+](=O)[O-])c1` [FL-078, 3-Borono-5-nitrobenzoic acid 1,4-phenylene ester], the affinity, expressed as Ki, was 6.7 ± 0.9 µM. On the same count and under the same terms, the same measure for `O=C(Oc1ccc(OC(=O)c2cc(B(O)O)cc([N+](=O)[O-])c2)c(Cl)c1)c1cc(B(O)O)cc([N+](=O)[O-])c1` [FL-079, 3-Borono-5-nitrobenzoic acid 2-chloro-1,4-phenylene ester]: 23.7 ± 3 µM. The same measure, in the same setting: the same measure for `O=C(Oc1c(Cl)cccc1Cl)c1cc(B(O)O)cc([N+](=O)[O-])c1` [FL-080, 3-(2,6-Dichlorophenoxycarbonyl)-5-nitrophenylboronic acid]: 62 ± 6 µM. `O=C(Oc1ccccc1F)c1cc(B(O)O)cc([N+](=O)[O-])c1` [FL-081, 3-(2-Fluorophenoxycarbonyl)-5-nitrophenylboronic acid] yielded a Ki of 179 ± 70 µM. `O=C(Oc1c(F)cccc1F)c1cc(B(O)O)cc([N+](=O)[O-])c1` [FL-082, 3-(2,6-Difluorophenoxycarbonyl)-5-nitrophenylboronic acid] had a Ki of 158 ± 109 µM. Take `O=C(O)c1cc(NC(=O)c2ccccc2F)cc(B(O)O)c1` [FL-083, 3-(2-Fluorobenzamido)-5-carboxylphenylboronic acid]: the Ki was determined as 104 ± 38 µM. In turn, `O=C(Nc1cc(B(O)O)cc([N+](=O)[O-])c1)c1ccccc1F` [FL-084, 3-(2-Fluorobenzamido)-5-nitrophenylboronic acid] displayed a Ki of over 1000 µM. `O=C(Oc1ccc(F)cc1)c1cc(B(O)O)cc([N+](=O)[O-])c1` [FL-085, 3-(4-Fluorophenoxycarbonyl)-5-nitrophenylboronic acid] gave a Ki of 95 ± 30 µM. The same measure, in the same setting: in the case of `O=C(OCc1c(Cl)cccc1Cl)c1cc(B(O)O)cc([N+](=O)[O-])c1` [FL-086] it was over 1000 µM; in that of `O=C(Oc1ccncc1)c1cc(B(O)O)cc([N+](=O)[O-])c1` [FL-087, 3-(4-pyridyloxycarbonyl)-5-nitro-phenylboronic acid], 66 ± 2 µM; in that of `Nc1cc(B(O)O)cc(C(=O)O)c1` [FL-088, 3-amino-5-carboxylphenylboronic acid], 63 ± 14 µM.

In turn, `O=C(Oc1cccnc1Cl)c1cc(B(O)O)cc([N+](=O)[O-])c1` [FL-089, 3-(2-Chloro-3-pyridyloxycarbonyl)-5-nitrophenylboronic acid] gave a Ki of 241 ± 85 µM. The same measure, in the same setting: in the case of `O=C(OC1c2ccccc2CC1Br)c1cc(B(O)O)cc([N+](=O)[O-])c1` (stereo not shown) [FL-090, 3-(2-Bromo-1-indanoxycarbonyl)-5-nitrophenylboronic acid] it was over 1000 µM; in that of `O=C(Oc1ccccc1)c1cc(B(O)O)cc([N+](=O)[O-])c1` [FL-092, 3-Phenoxycarbonyl-5-nitrophenylboronic acid], 15.5 ± 6.5 µM; in that of `O=C(OCc1cccc([N+](=O)[O-])c1)c1cc(B(O)O)cc([N+](=O)[O-])c1` [FL-094, 3-(3-Nitrobenzyloxycarbonyl)-5-nitrophenylboronic acid], 39 ± 5 µM. `O=C(OCc1cccc(Cl)c1)c1cc(B(O)O)cc([N+](=O)[O-])c1` [FL-095, 3-(3-Chlorobenzyloxycarbonyl)-5-nitrophenylboronic acid] yielded a Ki of 91.8 ± 8.8 µM.

With `O=C(Oc1ccccc1Br)c1cc(B(O)O)cc([N+](=O)[O-])c1` [FL-096, 3-(2-Bromophenoxycarbonyl)-5-nitro-phenylboronic acid], the Ki was found to be 137 ± 61 µM. `O=C(OC(C(=O)c1ccccc1)c1ccccc1)c1cc(B(O)O)cc([N+](=O)[O-])c1` (stereo not shown) [FL-097, 3-(1-Benzoyl-1-Phenylmethoxycarbonyl)-5-nitrophenylboronic acid] displayed an inhibition constant Ki of 153 ± 58 µM. Turning to `O=C(Oc1cccc(B(O)O)c1)c1c(Cl)cccc1Cl` [FL-099, 3-(2,6-dichlorophenylcarbonyloxy)phenyl boronic acid], the Ki is over 1000 µM. Same read-out and setting: the same measure for `O=C(Oc1cccc(B(O)O)c1)c1cc(B(O)O)cc([N+](=O)[O-])c1` [FL-100, 3-(3-Boronophenoxycarbonyl)-5-nitrophenylboronic acid]: 190 ± 100 µM.

Consider `O=C(OCc1cccc(B(O)O)c1)c1cc(B(O)O)cc([N+](=O)[O-])c1` [FL-101, 3-(3-Boronobenzyloxycarbonyl)-5-nitrophenylboronic acid], for which the Ki came out at 21.7 ± 3.27 µM. For `O=C(Oc1ccc(OC(=O)c2ccc(B(O)O)cc2F)c(Cl)c1)c1ccc(B(O)O)cc1F` [FL-103, 4-Borono-2-fluorobenzoic acid 2-chloro-1,4-phenylene ester], the Ki amounted to 39.1 ± 2.1 µM. The same measure, in the same setting: the same measure for `O=C(Oc1c(Cl)cccc1[N+](=O)[O-])c1ccc(B(O)O)cc1F` [FL-104, 4-(2-Chloro-6-nitrophenoxycarbonyl)-3-fluorophenylboronic acid]: 18 ± 1 µM; for `O=C(Oc1cccc(OC(=O)c2cc(B(O)O)cc([N+](=O)[O-])c2)c1)c1cc(B(O)O)cc([N+](=O)[O-])c1` [FL-106, 3-Borono-5-nitrobenzoic acid 1,3-phenylene ester]: 8.5 ± 0.5 µM; for `O=C(Oc1c(Cl)cc(Cl)cc1[N+](=O)[O-])c1cc(B(O)O)cc([N+](=O)[O-])c1` [FL-107, 3-(2,4-Dichloro-6-nitro-phenoxycarbonyl)-5-nitro-phenylboronic acid]: 6.9 ± 0.3 µM. Same read-out and setting: the same measure for `O=C(Nc1cc(B(O)O)cc([N+](=O)[O-])c1)c1c(Cl)cccc1Cl` [FL-108, 3-(2,6-Dichlorobenzamido)-5-nitrophenylboronic acid]: 15 ± 7 µM. On to `O=C(Nc1cc(B(O)O)ccc1Cl)c1c(Cl)cccc1Cl` [FL-109, 3-(2,6-Dichlorobenzamido)-4-chlorophenylboronic acid], for which the affinity, expressed as Ki, was 61.5 ± 19.7 µM. `Cc1ccc(B(O)O)cc1NC(=O)c1c(Cl)cccc1Cl` [FL-110, 3-(2,6-Dichlorobenzamido)-4-methylphenylboronic acid] came in with a Ki of 37 ± 9.7 µM. On the same count and under the same terms, in the case of `O=[N+]([O-])c1cc(NS(=O)(=O)c2ccccc2)cc(B(O)O)c1` [FL-114, 3-benzenesulfonamido-5-nitrophenylboronic acid] it was 49.8 ± 4.4 µM; in that of `O=C(Oc1cc(=O)oc2ccccc12)c1cc(B(O)O)cc([N+](=O)[O-])c1` [FL-133, 3-(4-Coumarinoxycarbonyl)-5-nitrophenylboronic acid], over 1000 µM; in that of `O=C(OCc1ccccc1COC(=O)c1cc(B(O)O)cc([N+](=O)[O-])c1)c1cc(B(O)O)cc([N+](=O)[O-])c1` [FL-136, 3-Borono-5-nitrobenzoic acid 1,2-benzenedimethanol ester], 8 ± 1.7 µM. Regarding `O=C(Oc1c(Cl)cc(Cl)cc1Cl)c1cc(B(O)O)cc([N+](=O)[O-])c1` [FL-139, 3-(2,4,6-Trichlorophenoxycarbonyl)-5-nitro-phenylboronic acid], the affinity, expressed as Ki, was 73.3 ± 38 µM. `O=C(Oc1c(Cl)c(Cl)c(OC(=O)c2cc(B(O)O)cc([N+](=O)[O-])c2)c(Cl)c1Cl)c1cc(B(O)O)cc([N+](=O)[O-])c1` [FL-141, 3-Borono-5-nitrobenzoic acid 2,3,5,6-tetrachloro-1,4-phenylene ester] displayed a Ki of 39.3 ± 11.7 µM. Still for that read-out and setting: the same measure for `O=C(OCc1cccc2ccccc12)c1cc(B(O)O)cc([N+](=O)[O-])c1` [FL-148, 3-(1-Naphthalenemethoxycarbonyl)-5-nitrophenylboronic acid]: 21.5 ± 8.7 µM.

Consider `O=C(OC(c1ccccc1)c1ccccc1)c1cc(B(O)O)cc([N+](=O)[O-])c1` [FL-149, 3-(1,1-Diphenylmethoxycarbonyl)-5-nitrophenylboronic acid], for which the Ki was 313 ± 170 µM. Still for that read-out and setting: the same measure for `O=C(Oc1ccc2ccccc2c1)c1cc(B(O)O)cc([N+](=O)[O-])c1` [FL-151, 3-(2-Naphthoxycarbonyl)-5-nitrophenylboronic acid]: 16.6 ± 6 µM. Same read-out and setting: in the case of `O=C(Oc1cccc(B(O)O)c1)c1ccc(C(=O)Oc2cccc(B(O)O)c2)cc1` [FL-156, 1,4-Benzenedicarboxylic acid, di 3-boronophenyl ester] it was 33 ± 9.4 µM; in that of `O=C(Oc1cc(OC(=O)c2cc(B(O)O)cc([N+](=O)[O-])c2)cc(OC(=O)c2cc(B(O)O)cc([N+](=O)[O-])c2)c1)c1cc(B(O)O)cc([N+](=O)[O-])c1` [FL-164, Tris-(3-borono-5-nitrobenzoic acid), 1,3,5-trihydroxybenzene ester], 79.6 ± 14.1 µM; in that of `O=C(OCCN(CCOC(=O)c1cc(B(O)O)cc([N+](=O)[O-])c1)CCOC(=O)c1cc(B(O)O)cc([N+](=O)[O-])c1)c1cc(B(O)O)cc([N+](=O)[O-])c1` [FL-165, Tris(3-borono-5-nitrobenzoic acid), triethanolamine ester], 50.6 ± 21.5 µM. Still for that read-out and setting: in the case of `O=C(Oc1ccc(OC(=O)c2cc(B(O)O)cc([N+](=O)[O-])c2)c2ccccc12)c1cc(B(O)O)cc([N+](=O)[O-])c1` [FL-167, 3-Borono-5-nitrobenzoic acid, 1,4-dihydroxynaphthalene ester] it was 10.2 ± 2.2 µM; in that of `CC(C)(C)c1cc(OC(=O)c2cc(B(O)O)cc([N+](=O)[O-])c2)ccc1OC(=O)c1cc(B(O)O)cc([N+](=O)[O-])c1` [FL-169, 3-Borono-5-nitrobenzoic acid, 2-tert-butyl-1,4-phenylene ester], 32.7 ± 2.5 µM; in that of `CCOC(=O)[C@H](Cc1ccccc1)NC(=O)c1cc(B(O)O)cc([N+](=O)[O-])c1` [FL-170, 3-borono-5-nitrobenzoyl-L-phenylalanine ethyl ester], 10.6 ± 7.5 µM. Compound `O=C(O)c1cc(O)cc(B(O)O)c1` [FL-172, (3-carboxy-5-hydroxyphenyl)boronic acid] showed a Ki of 3.5 ± 3.9 µM. On the same count and under the same terms, the same measure for `O=C(NCc1ccccc1)c1cccc(B(O)O)c1` [FL-1010, 3-(Benzylcarbamoyl)phenylboronic acid]: 84 ± 45 µM. As to `O=C(OCc1ccccc1)c1cc(B(O)O)cc([N+](=O)[O-])c1` [FL-1201, 3-Benzyloxycarbonyl-5-nitrophenylboronic acid], the Ki was determined as 35.8 ± 11.5 µM.

As usually defined, the Ki is a measure of affinity in units of concentration, obtained from inhibition or displacement. High values mean a looser hold on the target, low ones a stronger hold on the target.
